Values after ≈ are worked out from the molar mass of the structure shown. Read-outs that look alike come from different tables or passages of the source.
Legend:
[1] = system: human red blood cells (hRBC's); assay: Hemolysis assay; format: cell-based; details: for Hemolysis HC10 / Hemolysis HC50: red cells of human
Procedure: Freshly drawn human red blood cells (hRBC's) with additive K2 EDTA (spray-dried) were washed with PBS buffer several times and centrifuged at 1000 g for 10 min until a clear supernatant was observed. The hRBC's were resuspended in 1×PBS to get a 5% v/v suspension. Two-fold serial dilutions of γ-AApeptides dissolved in 1×PBS from 250 μg/ml through 1.6 μg/ml were added to a sterile 96-well plate to make up a total volume of 50 μL in each well. Then 50 μL of 5% v/v hRBC solution was added to make up a total volume of 100 μL in each well. The 0% hemolysis point and 100% hemolysis point were determined in 1×PBS and 0.2% Triton-X-100, respectively (Patch et al., 2003). The plate was then incubated at 37° C. for 1 h and centrifuged at 3500 rpm for 10 min. The supernatant (30 μL) was diluted with 100 μL of 1×PBS and absorption was detected by measuring the optical density at 360 nm by Biotek Synergy HT microtiter plate reader. % hemolysis was determined by the following equation: % hemolysis=(Abssample−AbsPBS)/(AbsTriton−AbsPBS)×100 H50 is the concentration of γ-AApeptide amphiphiles at which 50% hemolysis was observed. The highest concentration tested in the hemolytic assay was 500 μg/ml. 7. Fluorescence Microscopy
The sequences shown in FIG. 12 were also evaluated via hemolytic assays. Freshly drawn human red blood cells (hRBC's) with additive K2 EDTA (spray-dried) were washed with PBS buffer several times and centrifuged at 1000 g for 10 min until a clear supernatant was observed. The hRBC's were resuspended in 1×PBS to get a 5% v/v suspension. Two-fold serial dilutions of lipidated γ-AApeptides dissolved in 1×PBS from 1 mg/ml through 6.3 μg/ml were added to sterile 96-well plates to make up a total volume of 50 μL in each well. Then 50 μL of 5% v/v hRBC solution was added to make up a total volume of 100 μL in each well. The 0% hemolysis point and 100% hemolysis point were determined in 1×PBS and 0.2% Triton-X-100, respectively (Patch et al., 2003). The plate was then incubated at 37° C. for 1 h and centrifuged at 3500 rpm for 10 min. The supernatant (30 μL) was diluted with 100 μL of 1×PBS and absorption was detected by measuring the optical density at 360 nm with a Biotek Synergy HT microtiter plate reader. % hemolysis was determined by the following equation: % hemolysis=(Abs sample−Abs PBS)/(Abs Triton−Abs PBS)×100

[2] = system: K. pneumoniae (ATCC 13383)
[3] = system: multi-drug resistant P. aeruginosa ATCC 27853
[4] = system: B. subtilis (BR151)
[5] = system: multi-drug resistant S. epidermidis (RP62A); details: for MIC, S. epidermidis (MRSE): Table 5; for MIC, Gram positive S. epidermidis: Table 7
[6] = system: vancomycin-resistant E. faecalis (ATCC 700802); details: for MIC, E. faecalis (VREF): Table 5; for MIC, Gram positive E. faecalis: Table 7
[7] = system: methicillin-resistant S. aureus (ATCC 33592); details: for MIC, S. aureus (MRSA): Table 5; for MIC, Gram positive S. aureus: Table 7
[8] = system: C. albicans (ATCC 10231); details: ATCC 10231
[9] = system: E. coli (JM109)

SMILES | MIC, K. pneumoniae [2] | MIC, B. subtilis [4] | MIC, S. epidermidis (MRSE) [5] | MIC, E. faecalis (VREF) [6] | MIC, S. aureus (MRSA) [7] | MIC, Fungus C. albicans [8] | Hemolysis H10 [1] | Hemolysis H50 [1] | MIC, P. aeruginosa ([3]; ATCC 27853) | Hemolysis HC10 [1] | Hemolysis HC50 [1] | MIC, Gram negative E. coli [9] | MIC, Gram negative K. pneumoniae [2] | MIC, Gram negative P. aeruginosa ([3]; ATCC 27853) | MIC, Gram positive B. subtilis [4] | MIC, Gram positive S. epidermidis [5] | MIC, Gram positive E. faecalis [6] | MIC, Gram positive S. aureus [7] | further results
NCCCC[C@H]1CN(C(=O)CCc2ccccc2)CC(=O)N[C@@H](CCCCN)CN(C(=O)CCc2ccccc2)CC(=O)N[C@@H](CCCCN)CN(C(=O)CCc2ccccc2)CC(=O)N[C@@H](CCCCN)CN(C(=O)CCc2ccccc2)CC(=O)N[C@@H](Cc2ccccc2)CN(CC(N)=O)C(=O)CCC(=O)N1 [HW-B-3] | > 50 µg/mL | 25000 to 50000 µg/mL | > 50 µg/mL | > 50 µg/mL | > 50 µg/mL | > 50 µg/mL |  |  |  |  |  |  |  |  |  |  |  |  | Hemolysis H10 ([1]; Table 5, first value of H10/H50): > 500 µg/mL; Hemolysis H50 ([1]; Table 5, second value of H10/H50): > 500 µg/mL; MIC, P. aeruginosa ([3]; Table 5): > 50 µg/mL
NCCCC[C@H]1CN(C(=O)CCc2ccccc2)CC(=O)N[C@@H](CCCCN)CN(C(=O)CCc2ccccc2)CC(=O)N[C@@H](CCCCN)CN(C(=O)CCc2ccccc2)CC(=O)N[C@@H](CCCCN)CN(C(=O)CCc2ccccc2)CC(=O)N[C@@H](CCCCN)CN(C(=O)CCc2ccccc2)CC(=O)N[C@@H](Cc2ccccc2)CN(CC(N)=O)C(=O)CCC(=O)N1 [HW-B-4] | > 50 µg/mL | 10 µg/mL (≈ 5.54 µM) | 10 µg/mL (≈ 5.54 µM) | 20 µg/mL (≈ 11.1 µM) | > 50 µg/mL | > 50 µg/mL | > 500 µg/mL | > 500 µg/mL | 20 µg/mL (≈ 11.1 µM) |  |  |  |  |  |  |  |  |  | 
NCCCC[C@H]1CN(C(=O)CCc2ccccc2)CC(=O)N[C@@H](CCCCN)CN(C(=O)CCc2ccccc2)CC(=O)N[C@@H](CCCCN)CN(C(=O)CCc2ccccc2)CC(=O)N[C@@H](CCCCN)CN(C(=O)CCc2ccccc2)CC(=O)N[C@@H](CCCCN)CN(C(=O)CCc2ccccc2)CC(=O)N[C@@H](CCCCN)CN(C(=O)CCc2ccccc2)CC(=O)N[C@@H](Cc2ccccc2)CN(CC(N)=O)C(=O)CCC(=O)N1 [HW-B-5] | > 50 µg/mL | 5 µg/mL (≈ 2.37 µM) | 8 µg/mL (≈ 3.79 µM) | 20 µg/mL (≈ 9.48 µM) | 25-50 | > 50 µg/mL | > 500 µg/mL | > 500 µg/mL | 18 µg/mL (≈ 8.53 µM) |  |  |  |  |  |  |  |  |  | 
CC(C)CCC(=O)N1CC(=O)N[C@@H](CCCCN)CN(C(=O)CCc2ccccc2)CC(=O)N[C@@H](Cc2ccccc2)CN(CC(N)=O)C(=O)CCC(=O)N[C@@H](CCCCN)CN(C(=O)CCc2ccccc2)CC(=O)N[C@@H](Cc2ccccc2)CN(C(=O)CCC(C)C)CC(=O)N[C@@H](CCCCN)CN(C(=O)CCc2ccccc2)CC(=O)N[C@@H](CCCCN)CN(C(=O)CCc2ccccc2)CC(=O)N[C@@H](Cc2ccccc2)C1 [HW-B-12] | 5 µg/mL (≈ 2.4 µM) | 5 µg/mL (≈ 2.4 µM) | 5 µg/mL (≈ 2.4 µM) | 8 µg/mL (≈ 3.85 µM) | 6 µg/mL (≈ 2.88 µM) | 5 µg/mL (≈ 2.4 µM) | 150 µg/mL | 450 µg/mL | > 50 µg/mL |  |  |  |  |  |  |  |  |  | 
CCCCCCCCCCCCCCCC(=O)N[C@@H](CCCCN)CN(CC(N)=O)C(=O)CCCN [Sequence 2] |  |  |  |  |  |  |  |  |  | 25 µg/mL | 40 µg/mL | 2.5 µg/mL (≈ 4.88 µM) | 35 µg/mL (≈ 68.4 µM) | 10 µg/mL (≈ 19.5 µM) | 1.5 µg/mL (≈ 2.93 µM) | 2 µg/mL (≈ 3.91 µM) | 2.5 µg/mL (≈ 4.88 µM) | 2.5 µg/mL (≈ 4.88 µM) | MIC, Fungi, C. albicans [8]: 2 µg/mL (≈ 3.91 µM)
CCCCCCCCCCCCCCCC(=O)N[C@@H](C)CN(CC(=O)N[C@@H](C)CN(CC(=O)N[C@@H](CC(C)C)CN(CC(=O)N[C@@H](CC(C)C)CN(CC(=O)N[C@@H](CC(C)C)CN(CC(N)=O)C(=O)CCCN)C(=O)CCCN)C(=O)CCCN)C(C)=O)C(C)=O [Sequence 6] |  |  |  |  |  |  |  |  |  | 60 µg/mL | > 500 µg/mL | 2.5 µg/mL (≈ 1.94 µM) | 5 µg/mL (≈ 3.87 µM) | 5 µg/mL (≈ 3.87 µM) | 2.5 µg/mL (≈ 1.94 µM) | 4 µg/mL (≈ 3.1 µM) | 5 µg/mL (≈ 3.87 µM) | 4 µg/mL (≈ 3.1 µM) | 

Source: patent publication US10308686B2, “Gamma-AApeptides with potent and broad-spectrum antimicrobial activity” (priority 2012, dated 2019)
